Assay results from patent US20240269148A1, “Enhancement of Anti-Angiogenic Cancer Immunotherapy by Abortogenic Agents” (Therapeutic Solutions International, Inc., priority 2023, published 2024).

Columns and labels:
T cell = T cell reactivity in vitro after RU-486 administration (4T1 model); type: cell-based; settings: administration of RU-486
4T1 cells = test: 4T1 triple negative breast cancer model in BALB/c mice; type: in vivo
Experimental: Female BALB/c mice were administered 4T1 cells at a concentration of 1 million cells per mouse. VALLOVAX™ at a concentration of 500,000 cells per mouse was administered alone, RU-486 was administered alone (25 μg/g dose) and in combination of RU-486 and VALLOVAX™.

**Q.** For CC#C[C@]1(O)CC[C@H]2[C@@H]3CCC4=CC(=O)CCC4=C3[C@@H](c3ccc(N(C)C)cc3)C[C@@]21C [RU-486, mifepristone], which “T cell reactivity in vitro” value (T cell) is on record?
**A.** increased

**Q.** What about the “Breast cancer induced myeloid suppressor cells” value (4T1 cells; administration of RU-486) of the same compound?
**A.** decreased

**Q.** And the “Generation of CD8 cells capable of adoptively transferring immunity” value (4T1 cells; administration of RU-486)?
**A.** enhance

**Q.** And the “Therapeutic activity of ValloVax” value (4T1 cells; triple negative breast cancer 4T1 model)?
**A.** enhances
